Results as given in patent publication US11497752B2, “Compounds and uses thereof” (Foghorn Therapeutics Inc., priority 2018, dated 2022).

Key:
BRG-1 = BRG-1 (Homo sapiens, UniProt P51532); assay: ATPase catalytic activity of BRG-1 (ADP-Glo in vitro biochemical assay); conditions: for BRG1 Max % Inhibition: Table 6
BRM = BRM (Homo sapiens, UniProt P51531); assay: ATPase catalytic activity of BRM (ADP-Glo in vitro biochemical assay); conditions: for BRM Max % Inhibition: Table 6
Chain of BRM (P51531 whole entry): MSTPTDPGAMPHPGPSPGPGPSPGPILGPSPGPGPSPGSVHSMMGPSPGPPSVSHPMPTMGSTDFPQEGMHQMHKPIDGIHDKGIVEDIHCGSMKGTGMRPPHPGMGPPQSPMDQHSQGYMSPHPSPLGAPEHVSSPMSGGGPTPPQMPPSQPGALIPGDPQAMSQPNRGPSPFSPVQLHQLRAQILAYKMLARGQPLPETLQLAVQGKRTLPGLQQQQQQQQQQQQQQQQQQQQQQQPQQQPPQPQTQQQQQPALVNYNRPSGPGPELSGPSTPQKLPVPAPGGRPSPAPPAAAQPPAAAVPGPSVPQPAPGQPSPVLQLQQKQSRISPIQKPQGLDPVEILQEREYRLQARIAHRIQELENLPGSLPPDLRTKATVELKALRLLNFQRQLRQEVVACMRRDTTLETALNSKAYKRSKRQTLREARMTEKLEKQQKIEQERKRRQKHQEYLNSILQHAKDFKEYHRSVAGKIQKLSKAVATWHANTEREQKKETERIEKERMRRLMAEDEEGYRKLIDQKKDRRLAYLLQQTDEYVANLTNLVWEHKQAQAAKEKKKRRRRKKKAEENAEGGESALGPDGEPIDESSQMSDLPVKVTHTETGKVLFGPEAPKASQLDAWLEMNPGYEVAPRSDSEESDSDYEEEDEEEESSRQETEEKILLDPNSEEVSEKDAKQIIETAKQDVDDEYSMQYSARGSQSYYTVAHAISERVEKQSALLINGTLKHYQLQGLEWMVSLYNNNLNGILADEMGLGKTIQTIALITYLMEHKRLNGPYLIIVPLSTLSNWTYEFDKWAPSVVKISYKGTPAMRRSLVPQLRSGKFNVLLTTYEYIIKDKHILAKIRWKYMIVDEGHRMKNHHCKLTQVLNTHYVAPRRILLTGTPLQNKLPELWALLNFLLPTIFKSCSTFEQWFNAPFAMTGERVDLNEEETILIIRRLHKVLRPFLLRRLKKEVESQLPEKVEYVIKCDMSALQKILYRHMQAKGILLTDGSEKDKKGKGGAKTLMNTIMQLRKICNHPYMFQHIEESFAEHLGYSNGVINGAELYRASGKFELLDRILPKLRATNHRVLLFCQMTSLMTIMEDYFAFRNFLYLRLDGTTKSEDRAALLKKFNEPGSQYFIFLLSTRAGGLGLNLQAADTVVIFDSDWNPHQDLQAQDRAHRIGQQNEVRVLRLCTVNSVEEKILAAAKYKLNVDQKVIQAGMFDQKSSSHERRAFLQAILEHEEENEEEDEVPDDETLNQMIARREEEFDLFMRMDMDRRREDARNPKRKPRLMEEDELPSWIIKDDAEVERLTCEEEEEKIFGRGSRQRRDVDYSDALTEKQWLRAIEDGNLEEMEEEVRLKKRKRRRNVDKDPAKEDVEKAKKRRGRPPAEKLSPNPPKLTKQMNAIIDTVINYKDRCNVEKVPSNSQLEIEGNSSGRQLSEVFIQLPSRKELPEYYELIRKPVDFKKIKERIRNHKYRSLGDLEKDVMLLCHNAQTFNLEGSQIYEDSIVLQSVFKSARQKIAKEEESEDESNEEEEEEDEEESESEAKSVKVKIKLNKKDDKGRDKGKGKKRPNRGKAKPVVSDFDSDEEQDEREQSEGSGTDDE

Chain of BRG-1 (P51532 whole entry): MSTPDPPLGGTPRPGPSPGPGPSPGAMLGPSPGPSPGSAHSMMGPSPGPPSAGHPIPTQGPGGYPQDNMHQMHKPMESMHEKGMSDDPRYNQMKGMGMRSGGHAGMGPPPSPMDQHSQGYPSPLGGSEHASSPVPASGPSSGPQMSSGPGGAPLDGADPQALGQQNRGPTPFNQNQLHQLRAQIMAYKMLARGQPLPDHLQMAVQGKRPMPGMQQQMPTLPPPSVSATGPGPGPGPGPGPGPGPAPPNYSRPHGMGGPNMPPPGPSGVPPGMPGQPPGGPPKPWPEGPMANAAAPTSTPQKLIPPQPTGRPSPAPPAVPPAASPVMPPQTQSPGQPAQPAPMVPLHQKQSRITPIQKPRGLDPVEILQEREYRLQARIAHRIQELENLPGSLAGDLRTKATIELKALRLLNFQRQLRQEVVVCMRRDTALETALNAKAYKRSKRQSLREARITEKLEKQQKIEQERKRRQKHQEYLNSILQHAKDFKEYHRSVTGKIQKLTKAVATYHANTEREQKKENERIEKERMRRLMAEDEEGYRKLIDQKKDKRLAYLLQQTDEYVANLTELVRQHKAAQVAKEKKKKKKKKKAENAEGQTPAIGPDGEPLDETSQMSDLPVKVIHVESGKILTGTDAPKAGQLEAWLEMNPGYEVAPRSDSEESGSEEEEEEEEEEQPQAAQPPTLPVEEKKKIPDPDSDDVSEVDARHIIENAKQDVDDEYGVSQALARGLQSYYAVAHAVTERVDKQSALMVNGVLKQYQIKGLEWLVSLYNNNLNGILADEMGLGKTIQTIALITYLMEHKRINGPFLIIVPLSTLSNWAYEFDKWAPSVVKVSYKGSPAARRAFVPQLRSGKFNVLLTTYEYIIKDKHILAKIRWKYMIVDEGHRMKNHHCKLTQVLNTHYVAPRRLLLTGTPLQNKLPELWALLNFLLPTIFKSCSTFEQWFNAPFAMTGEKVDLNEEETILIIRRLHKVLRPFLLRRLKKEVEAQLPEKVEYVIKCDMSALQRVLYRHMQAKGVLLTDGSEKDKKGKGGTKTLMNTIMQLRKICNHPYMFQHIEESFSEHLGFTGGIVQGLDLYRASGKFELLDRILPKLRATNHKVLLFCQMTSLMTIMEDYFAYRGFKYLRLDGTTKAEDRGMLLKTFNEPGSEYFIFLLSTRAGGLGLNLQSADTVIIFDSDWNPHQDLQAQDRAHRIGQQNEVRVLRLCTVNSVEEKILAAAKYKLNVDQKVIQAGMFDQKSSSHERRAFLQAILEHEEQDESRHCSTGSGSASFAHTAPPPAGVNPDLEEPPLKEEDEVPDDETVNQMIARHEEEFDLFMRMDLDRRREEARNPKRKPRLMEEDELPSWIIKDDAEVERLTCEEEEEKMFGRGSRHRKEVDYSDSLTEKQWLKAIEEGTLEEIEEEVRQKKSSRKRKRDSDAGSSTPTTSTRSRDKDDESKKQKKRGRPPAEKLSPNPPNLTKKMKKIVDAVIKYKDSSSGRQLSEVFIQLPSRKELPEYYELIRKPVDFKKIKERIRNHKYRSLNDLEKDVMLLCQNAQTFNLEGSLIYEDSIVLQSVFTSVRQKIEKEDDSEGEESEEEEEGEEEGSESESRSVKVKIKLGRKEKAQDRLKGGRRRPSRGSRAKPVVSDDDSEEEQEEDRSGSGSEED

SMILES | IC50 (BRG-1) [nM] | BRG1 Max % Inhibition (BRG-1) [%] | IC50 (BRM) [nM] | BRM Max % Inhibition (BRM) [%]
COc1ccc(-c2cccc(-c3csc(NC(=O)CNC(=O)c4ccc(N)cc4)n3)c2)cn1 [Compound 127, 4-amino-N-(2-((4-(3-(6-methoxypyridin-3-yl)phenyl)thiazol-2-yl)amino)-2-oxoethyl)benzamide] | 100 to 1000 | >80 | 100 to 1000 | >90
CSCC[C@H](NC(=O)c1ccc(N)cc1)C(=O)Nc1nc(-c2cccc(-c3nnco3)c2)cs1 [Compound 128, (S)-N-(1-((4-(3-(1,3,4-oxadiazol-2-yl)phenyl)thiazol-2-yl)amino)-4-(methylthio)-1-oxobutan-2-yl)-4-aminobenzamide] | < 100 | >95 | < 100 | >95
CC(=O)N(C)Cc1cccc(-c2cccc(-c3csc(NC(=O)CNC(=O)c4ccc(N)cc4)n3)c2)c1 [Compound 129, 4-amino-N-(2-((4-(3′-((N-methylacetamido)methyl)-[1,1′-biphenyl]-3-yl)thiazol-2-yl)amino)-2-oxoethyl)benzamide] | 100 to 1000 | >95 | 100 to 1000 | >95
CNC(=O)c1ccc(-c2cccc(-c3csc(NC(=O)CNC(=O)c4ccc(N)cc4)n3)c2)cc1 [Compound 130, 3′-(2-(2-(4-aminobenzamido)acetamido)thiazol-4-yl)-N-methyl-[1,1′-biphenyl]-4-carboxamide] | 1000 to 10000 | >70 | 100 to 1000 | >70
CS(=O)(=O)c1ccc(-c2cccc(-c3csc(NC(=O)CNC(=O)c4ccc(N)cc4)n3)c2)cc1 [Compound 134, 4-amino-N-(2-((4-(4′-(methylsulfonyl)-[1,1′-biphenyl]-3-yl)thiazol-2-yl)amino)-2-oxoethyl)benzamide] | 100 to 1000 | >50 | 100 to 1000 | >50
NCc1cccc(-c2cccc(-c3csc(NC(=O)CNC(=O)c4ccc(N)cc4)n3)c2)c1 [Compound 135, 4-amino-N-(2-((4-(3′-(aminomethyl)-[1,1′-biphenyl]-3-yl)thiazol-2-yl)amino)-2-oxoethyl)benzamide] | < 100 | >95 | < 100 | >95
Nc1ccc(C(=O)NCC(=O)Nc2nc(-c3cccc(-c4cccc(C(=O)O)c4)c3)cs2)cc1 [Compound 136, 3′-(2-(2-(4-aminobenzamido)acetamido)thiazol-4-yl)-[1,1′-biphenyl]-3-carboxylic acid] | 100 to 1000 | >95 | 100 to 1000 | >95
CC(=O)N(C)Cc1ccc(-c2cccc(-c3csc(NC(=O)CNC(=O)c4ccc(N)cc4)n3)c2)cc1 [Compound 138, 4-amino-N-(2-((4-(4′-((N-methylacetamido)methyl)-[1,1′-biphenyl]-3-yl)thiazol-2-yl)amino)-2-oxoethyl)benzamide] | 100 to 1000 | >90 | 100 to 1000 | >90
Cn1ccc(-c2cccc(-c3csc(NC(=O)CNC(=O)c4ccc(N)cc4)n3)c2)cc1=O [Compound 140, 4-amino-N-(2-((4-(3-(1-methyl-2-oxo-1,2-dihydropyridin-4-yl)phenyl)thiazol-2-yl)amino)-2-oxoethyl)benzamide] | 100 to 1000 | >90 | 100 to 1000 | >95
Nc1ccc(C(=O)NCC(=O)Nc2nc(-c3cccc(-c4cccc(O)c4)c3)cs2)cc1 [Compound 141, 4-amino-N-(2-((4-(3′-hydroxy-[1,1′-biphenyl]-3-yl)thiazol-2-yl)amino)-2-oxoethyl)benzamide] | 100 to 1000 | >95 | < 100 | >95
Nc1ccc(C(=O)NCC(=O)Nc2nc(-c3cccc(-c4ccccc4F)c3)cs2)cc1 [Compound 142, 4-amino-N-(2-((4-(2′-fluoro-[1,1′-biphenyl]-3-yl)thiazol-2-yl)\amino)-2-oxoethyl)benzamide] | 100 to 1000 | >90 | 100 to 1000 | >90
Cn1ccc2ccc(-c3csc(NC(=O)CNC(=O)c4ccc(N)cc4)n3)cc2c1=O [Compound 143, 4-amino-N-(2-((4-(2-methyl-1-oxo-1,2-dihydroisoquinolin-7-yl)thiazol-2-yl)amino)-2-oxoethyl)benzamide] | < 100 | >95 | < 100 | >95
CNC(=O)c1cccc(-c2cccc(-c3csc(NC(=O)CNC(=O)c4ccc(N)cc4)n3)c2)c1 [Compound 144, 3-[3-[2-[[2-[(4-aminobenzoyl)amino]acetyl]amino]thiazol-4-yl]phenyl]-N-methyl-benzamide] | 100 to 1000 | >95 | 100 to 1000 | >95
Nc1ccc(C(=O)NCC(=O)Nc2nc(-c3ccc4cc[nH]c(=O)c4c3)cs2)cc1 [Compound 147, 4-amino-N-(2-oxo-2-((4-(1-oxo-1,2-dihydroisoquinolin-7-yl)thiazol-2-yl)amino)ethyl)benzamide] | < 100 | >95 | < 100 | >95
Cn1cnc2ccc(-c3csc(NC(=O)CNC(=O)c4ccc(N)cc4)n3)cc2c1=O [Compound 148, 4-amino-N-(2-((4-(3-methyl-4-oxo-3,4-dihydroquinazolin-6-yl)thiazol-2-yl)amino)-2-oxoethyl)benzamide] | < 100 | >95 | < 100 | >95
N#Cc1ccc(-c2cccc(-c3csc(NC(=O)CNC(=O)c4ccc(N)cc4)n3)c2)cc1 [Compound 149, 4-amino-N-(2-((4-(4′-cyano-[1,1′-biphenyl]-3-yl)thiazol-2-yl)amino)-2-oxoethyl)benzamide] | < 100 | >80 | < 100 | >80
Cn1ncc2ccc(-c3csc(NC(=O)CNC(=O)c4ccc(N)cc4)n3)cc2c1=O [Compound 150, 4-amino-N-(2-((4-(3-methyl-4-oxo-3,4-dihydrophthalazin-6-yl)thiazol-2-yl)amino)-2-oxoethyl)benzamide] | < 100 | >90 | < 100 | >95
Nc1ccc(C(=O)NCC(=O)Nc2nc(-c3cccc(-c4ccn(CC(F)(F)F)n4)c3)cs2)cc1 [Compound 151, 4-amino-N-(2-oxo-2-((4-(3-(1-(2,2,2-trifluoroethyl)-1H-pyrazol-3-yl)phenyl)thiazol-2-yl)amino)ethyl)benzamide] | 100 to 1000 | >80 | 100 to 1000 | >80

The next lines start with the values.

IC50 (BRG-1) [nM] | BRG1 Max % Inhibition (BRG-1) [%] | IC50 (BRM) [nM] | BRM Max % Inhibition (BRM) [%] | SMILES
< 100 | >80 | < 100 | >80 | CNc1ccc(C(=O)NCC(=O)Nc2nc(-c3cccc(-c4ccncc4)c3)cs2)cc1 [Compound 126, 4-(methylamino)-N-(2-oxo-2-((4-(3-(pyridin-4-yl)phenyl)thiazol-2-yl)amino)ethyl)benzamide]
< 100 | >95 | < 100 | >95 | CN(C)C(=O)c1cccc(-c2cccc(-c3csc(NC(=O)CNC(=O)c4ccc(N)cc4)n3)c2)c1 [Compound 131, 3′-(2-(2-(4-aminobenzamido)acetamido)thiazol-4-yl)-N,N-dimethyl-[1,1′-biphenyl]-3-carboxamide]
< 100 | >70 | < 100 | >80 | CN(C)c1ccc(C(=O)NCC(=O)Nc2nc(-c3cccc(-c4ccncc4)c3)cs2)cc1 [Compound 132, 4-(dimethylamino)-N-(2-oxo-2-((4-(3-(pyridin-4-yl)phenyl)thiazol-2-yl)amino)ethyl)benzamide]
< 100 | >95 | < 100 | >95 | Nc1ccc(C(=O)NCC(=O)Nc2nc(-c3cccc(-c4ccnc(N)c4)c3)cs2)cc1 [Compound 133, 4-amino-N-(2-((4-(3-(2-aminopyridin-4-yl)phenyl)thiazol-2-yl)amino)-2-oxoethyl)benzamide]
100 to 1000 | >95 | 100 to 1000 | >90 | CN(C)C(=O)c1ccc(-c2cccc(-c3csc(NC(=O)CNC(=O)c4ccc(N)cc4)n3)c2)cc1 [Compound 137, 3′-(2-(2-(4-aminobenzamido)acetamido)thiazol-4-yl)-N,N-dimethyl-[1,1′-biphenyl]-4-carboxamide]
< 100 | >95 | < 100 | >95 | Nc1ccc(C(=O)NCC(=O)Nc2nc(-c3cccc(-c4ccc(O)cc4)c3)cs2)cc1 [Compound 139, 4-amino-N-(2-((4-(4′-hydroxy-[1,1′-biphenyl]-3-yl)thiazol-2-yl)amino)-2-oxoethyl)benzamide]
100 to 1000 | >90 | 100 to 1000 | >90 | CN(C)Cc1ccc(-c2cccc(-c3csc(NC(=O)CNC(=O)c4ccc(N)cc4)n3)c2)cc1 [Compound 145, 4-amino-N-(2-((4-(4′-((dimethylamino)methyl)-[1,1′-biphenyl]-3-yl)thiazol-2-yl)amino)-2-oxoethyl)benzamide]
< 100 | >95 | < 100 | >95 | COc1cc(-c2cccc(-c3csc(NC(=O)CNC(=O)c4ccc(N)cc4)n3)c2)ccn1 [Compound 146, 4-amino-N-(2-((4-(3-(2-methoxypyridin-4-yl)phenyl)thiazol-2-yl)amino)-2-oxoethyl)benzamide]
